The values below are quoted from earlier work in patent publication US6680321B1, “Compounds with analgesic effect” (AstraZeneca Canada, Inc., priority 1995, dated 2004).

For series [1] the following is noted: in vivo.
The next series concerns the target μ receptor (Homo sapiens, UniProt P35372).
The target in another series is δ receptor (Homo sapiens, UniProt P41143).

Where only a bound is given, the exact number is not on record here.

Sequence of δ receptor (P41143 whole entry): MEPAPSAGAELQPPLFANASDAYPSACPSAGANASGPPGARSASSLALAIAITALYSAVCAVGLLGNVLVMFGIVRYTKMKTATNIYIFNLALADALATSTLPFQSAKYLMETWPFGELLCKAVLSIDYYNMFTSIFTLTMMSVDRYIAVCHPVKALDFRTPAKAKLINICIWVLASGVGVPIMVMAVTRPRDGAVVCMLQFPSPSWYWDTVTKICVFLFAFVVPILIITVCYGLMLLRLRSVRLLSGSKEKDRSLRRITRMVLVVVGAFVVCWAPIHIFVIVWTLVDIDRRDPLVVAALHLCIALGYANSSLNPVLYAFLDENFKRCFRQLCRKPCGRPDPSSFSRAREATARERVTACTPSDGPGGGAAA
Sequence of μ receptor (P35372 whole entry): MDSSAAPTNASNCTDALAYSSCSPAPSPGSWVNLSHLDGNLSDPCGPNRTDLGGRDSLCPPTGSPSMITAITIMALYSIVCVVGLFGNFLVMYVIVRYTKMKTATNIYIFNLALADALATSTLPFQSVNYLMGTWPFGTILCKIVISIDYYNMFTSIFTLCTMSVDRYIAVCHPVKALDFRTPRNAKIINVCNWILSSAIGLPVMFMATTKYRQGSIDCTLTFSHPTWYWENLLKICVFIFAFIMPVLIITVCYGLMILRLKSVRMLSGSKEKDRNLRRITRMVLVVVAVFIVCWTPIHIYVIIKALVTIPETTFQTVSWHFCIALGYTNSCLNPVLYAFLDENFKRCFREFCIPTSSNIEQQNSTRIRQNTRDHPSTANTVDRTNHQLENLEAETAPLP

Turning to `C=CCN1C[C@H](C)N([C@H](c2ccc(C(=O)N(CC)CC)cc2)c2cccc(O)c2)C[C@H]1C` [BW 373U86], the analgesic activity result in series [1] is reported as “with analgesic activity”. Besides, the “affinity for the μ receptor” value on μ receptor is “significant affinity”.
Regarding `Oc1ccc2c3c1O[C@H]1c4[nH]c5ccccc5c4C[C@@]4(O)[C@@H](C2)N(CC2CC2)CC[C@]314` [naltrindole], in series [1], the analgesic activity entry is recorded as “no analgesic activity”. Also, the “selectivity for the δ receptor vs μ′ receptor binding” value on δ receptor is reported as less than 10 fold.
